Blank lines part the entries; values can stand above or below the molecule they belong to.
Tests used:
RXRα shift = assay: Western blot of RXRα mobility shift (phosphorylation) in mitotic HeLa cells treated with inhibitors; assay type: cell-based, human; conditions: for RXRα shift (mobility shift on SDS-PAGE, WB): mitotic HeLa cells released from TT block, inhibitors for 15 min (FIG. 16)
Protocol: (§1) Cells were synchronized at GUS boundary by a double thymidine block. Briefly, cells cultured in a medium containing 2 mM thymidine for 16 hr were released into a normal medium for 8 hr, subjected to a second thymidine block for 16 hr, and then released into a fresh medium again. Alternatively, cells were synchronized at prometaphase by a thymidine-nocodazole arrest (an 18-hr thymidine arrest and a 5-hr release, followed by a 5-hr 100 ng/mL nocodazole arrest).

QSG-7701 cells = assay: Western blot analysis of QSG-7701 normal liver cells; assay type: cell-based, human; conditions: 12 hr (FIG. 61)
cancer cells = assay: Mitotic progression of cancer cells (FACS analysis); assay type: cell-based
Protocol: Cells were harvested by trypsin digestion, washed with PBS, and fixed with ice-cold 70% ethanol overnight at 4° C. The fixed cells were then washed twice in PBS and treated for 10 min at room temperature with 0.5 μg/mL 4-6-diamidino-2-phenylindole (DAPI) in PBS and analyzed on a FACSCAN™ flow cytometer. Flow cytometry data were analyzed using CYTEXPERT.

[1] = target: T1, p-RXRα and PLK1 at the centrosome (Homo sapiens, UniProt P19793); assay: In situ proximity ligation assay (PLA) in HepG2 cells; assay type: cell-based; conditions: RO-3306 10 μM for 30 min or compound A1 10 μM for 2 hr (FIG. 56)
T1 construct: endogenous in cells; host or cells: HepG2
T1 sequence (P19793 1-462): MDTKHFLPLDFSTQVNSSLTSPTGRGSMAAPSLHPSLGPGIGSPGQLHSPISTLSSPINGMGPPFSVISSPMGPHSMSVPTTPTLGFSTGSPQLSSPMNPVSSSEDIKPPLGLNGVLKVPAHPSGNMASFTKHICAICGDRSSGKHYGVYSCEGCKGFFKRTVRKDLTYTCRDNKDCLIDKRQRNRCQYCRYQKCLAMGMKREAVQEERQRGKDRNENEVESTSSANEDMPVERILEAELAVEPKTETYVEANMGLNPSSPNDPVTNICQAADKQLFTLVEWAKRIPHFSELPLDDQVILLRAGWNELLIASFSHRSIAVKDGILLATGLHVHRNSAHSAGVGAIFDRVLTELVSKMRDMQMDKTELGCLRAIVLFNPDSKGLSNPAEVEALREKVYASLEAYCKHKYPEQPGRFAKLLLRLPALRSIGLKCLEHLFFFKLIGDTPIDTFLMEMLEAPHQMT
Protocol: An in situ proximity ligation assay (PLA) was performed in HeLa cells and HepG2 by using a DOULINK™ assay kit. Briefly, cells mounted on glass slides were fixed with methanol at −20° C. for 5 min, then permeabilized with 0.05% Triton X-100 in a PBS buffer for 8 min at 4° C., and blocked with a blocking solution for 60 min at 37° C., followed by incubation with primary antibodies for 60 min at 37° C. The slides were then washed three times with wash buffer A, and PLA labeled secondary antibodies (anti-mouse, minus; anti-rabbit, plus) were added and incubated for 60 min at 37° C. The slides were washed two times with wash buffer A and a ligation solution including a ligase was added for 30 min at 37° C. After ligation, the slides were washed two times with wash buffer A and followed by incubation with an amplification buffer including a polymerase for 100 min at 37° C. After amplification, the slides were washed two times with 1×wash buffer B and one time in 0.01×wash buffer B. Finally, the slides were mounted using a minimal volume of a mounting medium with DAPI and analyzed in a confocal microscope after 15 min.

PLK1 phosphorylation = assay: Western blot of PLK1 activation/phosphorylation in mitotic cells; assay type: cell-based, human
Protocol: as §1

[2] = tested on: centrosomal localization of pS56-RXRα or RXRα; assay: Immunostaining of centrosomal localization of pS56-RXRα or RXRα in metaphase HeLa cells; assay type: cell-based, human; conditions: metaphase HeLa cells (FIG. 33)
Protocol: Cells mounted on glass slides were fixed with methanol at −20° C. for 10 min, then permeabilized with 0.05% Triton X-100 in a PBS buffer for 8 min at 4° C., and blocked with 1% bovine serum in PBS for 30 min at room temperature, followed by incubation with primary antibodies at room temperature for 3 hr and detected by FITC-labeled anti-IgG (1:200), anti-goat IgG conjugated with Cy3 (1:200) at room temperature for 1 hr. The cells were costained with 40,6-diamidino-2-phenylindole (DAPI) (1:10,000 dilution) to visualize nuclei. The images were taken under a LEICA TCS SP8 confocal laser scanning microscope system or an LSM-510 confocal laser scanning microscope system.

[3] = target: T2, polo-like kinase 1 (PLK1), full-length (human, UniProt P53350 1-603); assay: CoIP in HeLa cells (FIG. 4)
T2 construct: Endogenous, FLAG-tagged and His-tagged forms are merged here; also called FLAG-PLK1; Flag-PLK1

[4] = target: T3, retinoic acid receptor-γ (RARγ) (UniProt P13631 1-454, limits assumed); assay: co-immunoprecipitation from HeLa cells (IP: FLAG, WB: Myc)
T3 construct: also called FLAG-RARγ
T3 sequence (looked up): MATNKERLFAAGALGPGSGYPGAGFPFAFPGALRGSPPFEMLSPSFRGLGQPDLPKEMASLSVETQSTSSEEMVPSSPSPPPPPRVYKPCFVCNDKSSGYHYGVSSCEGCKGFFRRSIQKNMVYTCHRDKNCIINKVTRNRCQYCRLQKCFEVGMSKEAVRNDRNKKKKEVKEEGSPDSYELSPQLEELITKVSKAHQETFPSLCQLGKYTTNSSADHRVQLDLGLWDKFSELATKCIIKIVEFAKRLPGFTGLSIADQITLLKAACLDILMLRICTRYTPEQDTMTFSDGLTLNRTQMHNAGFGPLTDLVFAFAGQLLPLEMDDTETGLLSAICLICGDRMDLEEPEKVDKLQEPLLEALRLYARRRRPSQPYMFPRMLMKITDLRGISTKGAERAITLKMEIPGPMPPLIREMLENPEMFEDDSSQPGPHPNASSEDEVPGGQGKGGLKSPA

[5] = target: T3, retinoic acid receptor-γ (RARγ); assay: CoIP in HeLa cells (FIG. 3)
[6] = target: T2, polo-like kinase 1 (PLK1), full-length; assay: CoIP in HeLa cells (FIG. 3)
[7] = target: T4, modified (phosphorylated) RXRα, mobility-shifted form (human, UniProt P19793 1-462, phosphoserine at 56 (as in SEQ ID NO: 1) and phosphoserine at 70 (MS/MS)); assay: CoIP of PLK1-KD or PLK1-PBD with RXRα in HeLa cells (FIG. 6)
T4 construct: Cdk1-phosphorylated form with reduced mobility on SDS-PAGE; Endogenous and Myc-, FLAG-, GST-tagged forms are merged; also called m-RXRα; p-RXRα
T4 sequence: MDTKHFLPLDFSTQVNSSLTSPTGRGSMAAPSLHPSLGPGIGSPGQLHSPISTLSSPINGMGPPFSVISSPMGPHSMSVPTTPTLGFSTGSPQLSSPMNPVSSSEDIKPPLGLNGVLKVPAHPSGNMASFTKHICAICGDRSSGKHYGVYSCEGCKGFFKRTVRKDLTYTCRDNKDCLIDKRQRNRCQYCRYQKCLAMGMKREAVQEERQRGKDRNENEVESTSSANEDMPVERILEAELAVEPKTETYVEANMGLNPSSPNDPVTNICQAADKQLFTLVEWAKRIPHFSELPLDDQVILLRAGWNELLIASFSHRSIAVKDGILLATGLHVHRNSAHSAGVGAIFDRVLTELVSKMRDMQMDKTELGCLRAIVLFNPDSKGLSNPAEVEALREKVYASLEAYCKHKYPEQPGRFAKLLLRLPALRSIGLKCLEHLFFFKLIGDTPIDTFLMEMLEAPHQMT

[8] = target: T5, regular 55 kDa RXRα (unmodified form) (human, UniProt P19793 1-462); assay: co-immunoprecipitation from HeLa cells (IP: FLAG, WB: Myc)
T5 construct: Non-shifted band of RXRα; Endogenous and tagged (Myc, FLAG, GST) forms are merged; also called regular RXRα; GST-RXRα (not phosphorylated)
T5 sequence: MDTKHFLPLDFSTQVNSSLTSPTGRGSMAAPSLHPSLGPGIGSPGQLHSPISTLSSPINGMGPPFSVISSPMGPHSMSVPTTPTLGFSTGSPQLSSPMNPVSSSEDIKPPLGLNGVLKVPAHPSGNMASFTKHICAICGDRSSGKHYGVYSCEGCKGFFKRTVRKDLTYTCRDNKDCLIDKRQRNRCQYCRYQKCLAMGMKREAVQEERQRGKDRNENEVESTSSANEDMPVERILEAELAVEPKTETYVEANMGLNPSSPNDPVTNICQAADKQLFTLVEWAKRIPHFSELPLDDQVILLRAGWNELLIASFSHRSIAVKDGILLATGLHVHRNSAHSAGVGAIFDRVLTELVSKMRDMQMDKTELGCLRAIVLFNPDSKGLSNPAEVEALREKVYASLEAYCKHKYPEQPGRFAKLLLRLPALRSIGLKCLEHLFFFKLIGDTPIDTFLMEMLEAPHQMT

[9] = target: T2, polo-like kinase 1 (PLK1), full-length; assay: CoIP in HeLa cells (FIG. 5)

Molecule: CC[C@@H]1C(=O)N(C)c2cnc(Nc3ccc(C(=O)NC4CCN(C)CC4)cc3OC)nc2N1C1CCCC1 [BI2536]
RXRα shift (mobility shift on SDS-PAGE, WB) (RXRα shift): did not inhibit
effect in p-RXRα-negative noncancerous QSG-7701 cells (QSG-7701 cells): active even in QSG-7701 cells
inducing mitosis arrest (cancer cells): inducing mitosis arrest
mitotic progression of cancer cells (cancer cells): inhibited mitotic progression of cancer cells

in situ interaction between p-RXRα and PLK1 at the centrosome (PLA) [1]: inhibited the in situ interaction
Molecule: O=C1NC(=NCc2cccs2)S/C1=C\c1ccc2ncccc2c1 [RO-3306]
level of p-RXRα detected by the anti-pS56-RXRα antibody (RXRα shift; mitotic HeLa cells): reduced
RXRα shift (mobility shift on SDS-PAGE, WB) (RXRα shift): strongly inhibited RXRα shift in a dose dependent manner
PLK1 activation / PLK1 phosphorylation (PLK1 phosphorylation): reduced PLK1 phosphorylation in a dose dependent manner
centrosomal RXRα staining by the regular anti-RXRα antibody [2]: inhibited centrosomal RXRα staining
centrosomal staining by the anti-pS56-RXRα antibody [2]: eliminated centrosomal staining by the antibody

Molecule: Oc1c2ccccc2c2c3c(cccc13)N=N2 [SP600125]
RXRα shift (mobility shift on SDS-PAGE, WB) (RXRα shift): no effect

Molecule: Cc1cc(Nc2cc(N3CCN(C)CC3)nc(Sc3ccc(NC(=O)C4CC4)cc3)n2)n[nH]1 [VX680]
PLK1 activation / PLK1 phosphorylation (PLK1 phosphorylation): attenuated

Molecule: CN1CC[C@H](c2c(O)cc(O)c3c(=O)cc(-c4ccccc4Cl)oc23)[C@H](O)C1 [flavopiridol]
RXRα shift (mobility shift on SDS-PAGE, WB) (RXRα shift): strongly inhibited RXRα shift in a dose dependent manner

Molecule: CC(=O)c1c(C)c2cnc(Nc3ccc(N4CCNCC4)cn3)nc2n(C2CCCC2)c1=O [palbociclib]
RXRα shift (mobility shift on SDS-PAGE, WB) (RXRα shift): no effect

Molecule: CC1=CC(=O)C(C(C)C)=C/C1=N/OC(=O)c1ccccc1C [poloxin]
mitotic progression of cancer cells (cancer cells): inhibited mitotic progression of cancer cells

binding result [3]: no binding
B1: RXRα-LBD (ligand-binding domain of RXRα) (receptor)
chain: TSSANEDMPVERILEAELAVEPKTETYVEANMGLNPSSPNDPVTNICQAADKQLFTLVEWAKRIPHFSELPLDDQVILLRAGWNELLIASFSHRSIAVKDGILLATGLHVHRNSAHSAGVGAIFDRVLTELVSKMRDMQMDKTELGCLRAIVLFNPDSKGLSNPAEVEALREKVYASLEAYCKHKYPEQPGRFAKLLLRLPALRSIGLKCLEHLFFFKLIGDTPIDTFLMEMLEAPHQMT
notes: also called LBD of RXRα

binding result [4]: no binding
B2: RXRα-1-235, regular form (receptor)
chain: MDTKHFLPLDFSTQVNSSLTSPTGRGSMAAPSLHPSLGPGIGSPGQLHSPISTLSSPINGMGPPFSVISSPMGPHSMSVPTTPTLGFSTGSPQLSSPMNPVSSSEDIKPPLGLNGVLKVPAHPSGNMASFTKHICAICGDRSSGKHYGVYSCEGCKGFFKRTVRKDLTYTCRDNKDCLIDKRQRNRCQYCRYQKCLAMGMKREAVQEERQRGKDRNENEVESTSSANEDMPVERI

binding result [5]: no binding
binding result [6]: binds
B3: RXRα-1-235, modified form with mobility shift (receptor)
chain: MDTKHFLPLDFSTQVNSSLTSPTGRGSMAAPSLHPSLGPGIGSPGQLHSPISTLSSPINGMGPPFSVISSPMGPHSMSVPTTPTLGFSTGSPQLSSPMNPVSSSEDIKPPLGLNGVLKVPAHPSGNMASFTKHICAICGDRSSGKHYGVYSCEGCKGFFKRTVRKDLTYTCRDNKDCLIDKRQRNRCQYCRYQKCLAMGMKREAVQEERQRGKDRNENEVESTSSANEDMPVERI
modifications: phosphorylated (mobility-shifted); sites not stated for this construct
notes: A/B domain plus DBD

binding result [7]: no binding
binding result [8]: no binding
B4: PLK1-KD (N-terminal kinase domain of PLK1) (enzyme, UniProt P53350 1-326, looked up)
chain: MSAAVTAGKLARAPADPGKAGVPGVAAPGAPAAAPPAKEIPEVLVDPRSRRRYVRGRFLGKGGFAKCFEISDADTKEVFAGKIVPKSLLLKPHQREKMSMEISIHRSLAHQHVVGFHGFFEDNDFVFVVLELCRRRSLLELHKRRKALTEPEARYYLRQIVLGCQYLHRNRVIHRDLKLGNLFLNEDLEVKIGDFGLATKVEYDGERKKTLCGTPNYIAPEVLSKKGHSFEVDVWSIGCIMYTLLVGKPPFETSCLKETYLRIKKNEYSIPKHINPVAASLIQKMLQTDPTARPTINELLNDEFFTSGYIPARLPITCLTIPPRFS
notes: domain: kinase domain (KD)

binding result [9]: no binding
B5: RXRα mutant lacking the N-terminal A/B domain (receptor)
chain: CAICGDRSSGKHYGVYSCEGCKGFFKRTVRKDLTYTCRDNKDCLIDKRQRNRCQYCRYQKCLAMGMKREAVQEERQRGKDRNENEVESTSSANEDMPVERILEAELAVEPKTETYVEANMGLNPSSPNDPVTNICQAADKQLFTLVEWAKRIPHFSELPLDDQVILLRAGWNELLIASFSHRSIAVKDGILLATGLHVHRNSAHSAGVGAIFDRVLTELVSKMRDMQMDKTELGCLRAIVLFNPDSKGLSNPAEVEALREKVYASLEAYCKHKYPEQPGRFAKLLLRLPALRSIGLKCLEHLFFFKLIGDTPIDTFLMEMLEAPHQMT
notes: also called RXRα-AA/B (so in the source)
